In patent US6242442A (Alcon Laboratories, Inc., priority 2000, dated 2001):
Read-outs that look alike come from different tables or passages of the source.

Columns and labels:
[1] = in words; cited from earlier work
[2] = tested on: ocular and cerebral blood flow; settings: oral and i.v. administration, relatively high dosages; cited from earlier work
IOP = settings: rabbits, monkeys and man; cited from earlier work
[3] = tested on: scleral vessels; vessels in the back of the eye; settings: topical ocular administration; cited from earlier work
α2 = settings: cited from earlier work
[4] = topical, some patients; cited from earlier work
optic nerve head (ONH) [5] = test: Optic nerve head blood flow by LDF, one-week multidose topical crossover study in rabbits; type: in vivo, Dutch-Belted rabbits; settings: 2% suspension topical, one drop twice daily, 90 minutes after last dose, mean±SEM, p<0.05
Description: (§1) Treatment measurements were made 90 minutes after the last dose on day eight. Optic nerve head blood flow and measured systemic variables were not changed by vehicle treatment. […] It is established that the vasculature of the ONH responds to increases in arterial O2 or CO2 tension by a reduction or an enhancement of ONH blood flow respectively.

retina [6] = test: Tissue distribution after single topical ocular dose of 14C-brinzolamide, Dutch belted rabbits; type: in vivo
retina [7] = test: Tissue distribution after single topical ocular dose of 14C-brinzolamide, NZW rabbits; type: in vivo, New Zealand Albino (NZW) rabbits
[8] = tested on: intraocular pressure (IOP); test: Intraocular pressure, one-week multidose topical crossover study in rabbits; type: in vivo, Dutch-Belted rabbits; settings: 2% suspension topical, one drop twice daily, 90 minutes after last dose, p<0.05 versus vehicle, p<0.001 versus baseline
Description: as §1

intraocular pressure = settings: ocular hypertension and glaucoma; cited from earlier work
optic nerve head = test: Optic nerve head blood flow by LDF in anesthetized rabbits, intravenous; type: in vivo, New Zealand albino rabbits; settings: intravenous 0.5, 2.5, and 5 mg/kg
From the text: (§2) In this experiment it was also possible to compare blood flows of the normal eye to the contralateral eye that was mildly hypofused due to unilateral carotid occlusion.

[9] = Acid-base balance and arterial gases, one-week multidose topical crossover study in rabbits; type: in vivo, Dutch-Belted rabbits; settings: 2% suspension topical, one drop twice daily
Description: as §1

[10] = Distribution coefficient (octanol/water determined at pH 7.4); type: physicochemical
optic nerve head (ONH) [11] = test: Optic nerve head blood flow by laser Doppler flowmetry in cats; type: in vivo, cat
ocular tissues = test: Ocular blood flow by colored microsphere technique in anesthetized rabbits, intravenous; type: in vivo, New Zealand albino rabbits; settings: for increase in total ocular blood flow, hypofused eyes: unilateral carotid occlusion
From the text: as §2

ocular blood flow [12] = settings: cited from earlier work
[13] = tested on: blood flow to the iris, ciliary processes, optic nerve, or retina; settings: topical, rabbits; Sugrue et al. 1996; cited from earlier work
ocular blood flow [14] = settings: cited from earlier work; remark: listed apart in the source
[15] = octanol/water, pH 7.4; in words; cited from earlier work
[16] = retina, single topical ocular dose of 1% 14C-brinzolamide
[17] = read-out: distribution coefficient (converted)

For CC(=O)Nc1nnc(S(N)(=O)=O)s1 [acetazolamide], the “half-life in whole blood” value [1] is given as “relatively short half-lives in whole blood” and the “ocular and cerebral blood flow” value [2] is given as “increase both ocular and cerebral blood flow”.
In the case of Brc1c(NC2=NCCN2)ccc2nccnc12 [brimonidine, (5-bromo-6-2-imidzolidisnylideneamino) quinozoline L-tartrate], the “lowering of IOP” value (IOP) is given as “effectively lower IOP in rabbits, monkeys and man”, the “vasoconstriction in scleral vessels” value [3] is given as “causes vasoconstriction in scieral vessels” and the “vasoconstriction in vessels in the back of the eye” value [3] is given as “does not appear to be a vasoconstrictor in vessels in the back of the eye”. For the same molecule, the “α2 agonist activity and selectivity” value (α2) was “potent and relatively selective α2 agonist” and the side effects [4] was “sedation and ocular hyperemia in an allergic like reaction in some patients”.
With CCN[C@H]1CN(CCCOC)S(=O)(=O)c2sc(S(N)(=O)=O)cc21 [brinzolamide, R-(+)-4ethylamino-3,4-dihydro-2-(3-methoxy)propyl-2H thieno[3,2,e]1,2thiazene-6sulfonamide-1,1dioxide] the “increase in ONH blood flow” value (optic nerve head (ONH) [5]) was 11.2±1.6%, the Cmax (retina [6]; [16]) was 0.338 ?g equivalents/g and the “redistribution into the retina” value (retina [6]; topical ocular) was “slowly redistribute into the retina”. The Cmax (retina [7]; [16]) was 0.330 ?g equivalents/g, the “Tmax in the retina” value (retina [7]; single topical ocular dose of 1% 14C-brinzolamide) was 20 days and the “redistribution into the retina” value (retina [7]; topical ocular) was “slowly redistribute into the retina”. For the same molecule, the “decrease of IOP” value [8] was 16.8±2.2%, the “lowering of elevated intraocular pressure” value (intraocular pressure) was “effective in lowering the elevated intraocular pressure” and the “optic nerve head blood flow” value (optic nerve head) was “increased above baseline”. For the same molecule, the “disturbance of acid-base balance” value [9] was “Minimal disturbance of acid-base balance”, the logD [10, 17] was 0.817 and the “increase in ONH blood flow over control group” value (optic nerve head (ONH) [11]; 1% topical, one drop twice a day, one week, spontaneously breathing cats, average of two measurements) was 21.8%. For the same molecule, the “increase in ONH blood flow” value (optic nerve head (ONH) [11]; 60 minutes following single topical dose, anesthetized ventilated cats) was 16.5%±8%, the “increase in ONH blood flow” value (optic nerve head (ONH) [11]; intravenous, p≤0.05) was 46±17% and the “regional blood flows to the hypofused eye” value (ocular tissues; highest intravenous dose) was “returned regional blood flows to the hypofused eye to baseline levels found in the normal eye”. The “tissues with greatest percentage blood flow increase, hypofused eye” value (ocular tissues; intravenous) was “greatest to iridial, ciliary, and choroidal tissues, respectively”, the “increase in total ocular blood flow, normal eyes” value (“increase … normal eyes” for short) (ocular tissues; intravenous 0.5 mg/kg) was 29% and the “increase in total ocular blood flow, hypofused eyes” value (shortened to “increase … hypofused eyes”) (ocular tissues; intravenous 0.5 mg/kg) was 21%. The “increase … normal eyes” value (ocular tissues; intravenous 2.5 mg/kg) was 68%, the “increase … hypofused eyes” value (ocular tissues; intravenous 2.5 mg/kg) was 64% and the “increase … normal eyes” value (ocular tissues; intravenous 5 mg/kg) was 90%. The “increase … hypofused eyes” value (ocular tissues; intravenous 5 mg/kg) was 90% and the “total ocular blood flow” value (ocular tissues; intravenous 0.5, 2.5, and 5 mg/kg) was “significant dose-related increase”.
In the case of CCN[C@H]1C[C@H](C)S(=O)(=O)c2sc(S(N)(=O)=O)cc21 [dorzolamide], the “blood velocity in the retina and superficial optic nerve head” value (ocular blood flow [12]; Harris et al. 1996) is listed as “accelerated blood velocity in the retina and superficial optic nerve head”, the “choroidal pressure flow relationships” value (ocular blood flow [12]; Shipman et al. 1997) is listed as “did not alter the choroidal pressure flow relationships” and the peripapillary blood flow (ocular blood flow [12]; topical, Koller et al. 1997) is listed as “did not change peripapillary blood flow”. The ocular blood flow (ocular blood flow [12]; topical, Sponsel 1996, 1997) was “positive effect on ocular blood flow”, the logD [10, 17] was 0.236 and the “blood flow to the iris, ciliary processes, optic nerve, or retina” value [13] was “does not decrease blood flow”. The artereovenous passage time (ocular blood flow [14]; healthy subjects, WO 96/37203) was “accelerated artereovenous passage time”, the “optic nerve head velocity” value (ocular blood flow [14]; healthy subjects, WO 96/37203) was “increase in optic nerve head velocity” and the “retinal vein blood flow” value (ocular blood flow [14]; normal volunteers, Gruenwald et al. 1997) was “no effect on retinal vein blood flow”. For the same molecule, the “optic nerve head blood flow” value (ocular blood flow [14]; topical, healthy subjects, Pillunat et al. 1997) was “did not alter optic nerve head blood flow”.
In the case of CC(=O)/N=c1/sc(S(N)(=O)=O)nn1C [methazolamide], the “half-life in whole blood” value [1] is listed as “relatively short half-lives in whole blood”, the logD [10] is listed as -0.194 and the distribution coefficient [15] is listed as “low distribution coefficients”. For the same molecule, the “ocular and cerebral blood flow” value [2] was “increase both ocular and cerebral blood flow”.
